The values below come from ChEMBL document CHEMBL5705888, “Substrate specificity and inhibitors of LRRK2, a protein kinase mutated in Parkinson's disease” (Biochem J, 2009).

Where only a bound is given, the exact number is not on record here.

For experiment [1], the target named is Leucine-rich repeat serine/threonine-protein kinase 2 (Homo sapiens, UniProt Q5S007, G2019S). Briefly: Inhibition of GST-tagged LRRK2 G2019S mutant (1326 to 2527 residues) (unknown origin) using peptide as substrate incubated for 15 mins in presence of ATP by immunoblotting analysis.
Chain of Leucine-rich repeat serine/threonine-protein kinase 2 (Homo sapiens, UniProt Q5S007, G2019S) (Q5S007 whole entry G2019S, the tested form may be a part): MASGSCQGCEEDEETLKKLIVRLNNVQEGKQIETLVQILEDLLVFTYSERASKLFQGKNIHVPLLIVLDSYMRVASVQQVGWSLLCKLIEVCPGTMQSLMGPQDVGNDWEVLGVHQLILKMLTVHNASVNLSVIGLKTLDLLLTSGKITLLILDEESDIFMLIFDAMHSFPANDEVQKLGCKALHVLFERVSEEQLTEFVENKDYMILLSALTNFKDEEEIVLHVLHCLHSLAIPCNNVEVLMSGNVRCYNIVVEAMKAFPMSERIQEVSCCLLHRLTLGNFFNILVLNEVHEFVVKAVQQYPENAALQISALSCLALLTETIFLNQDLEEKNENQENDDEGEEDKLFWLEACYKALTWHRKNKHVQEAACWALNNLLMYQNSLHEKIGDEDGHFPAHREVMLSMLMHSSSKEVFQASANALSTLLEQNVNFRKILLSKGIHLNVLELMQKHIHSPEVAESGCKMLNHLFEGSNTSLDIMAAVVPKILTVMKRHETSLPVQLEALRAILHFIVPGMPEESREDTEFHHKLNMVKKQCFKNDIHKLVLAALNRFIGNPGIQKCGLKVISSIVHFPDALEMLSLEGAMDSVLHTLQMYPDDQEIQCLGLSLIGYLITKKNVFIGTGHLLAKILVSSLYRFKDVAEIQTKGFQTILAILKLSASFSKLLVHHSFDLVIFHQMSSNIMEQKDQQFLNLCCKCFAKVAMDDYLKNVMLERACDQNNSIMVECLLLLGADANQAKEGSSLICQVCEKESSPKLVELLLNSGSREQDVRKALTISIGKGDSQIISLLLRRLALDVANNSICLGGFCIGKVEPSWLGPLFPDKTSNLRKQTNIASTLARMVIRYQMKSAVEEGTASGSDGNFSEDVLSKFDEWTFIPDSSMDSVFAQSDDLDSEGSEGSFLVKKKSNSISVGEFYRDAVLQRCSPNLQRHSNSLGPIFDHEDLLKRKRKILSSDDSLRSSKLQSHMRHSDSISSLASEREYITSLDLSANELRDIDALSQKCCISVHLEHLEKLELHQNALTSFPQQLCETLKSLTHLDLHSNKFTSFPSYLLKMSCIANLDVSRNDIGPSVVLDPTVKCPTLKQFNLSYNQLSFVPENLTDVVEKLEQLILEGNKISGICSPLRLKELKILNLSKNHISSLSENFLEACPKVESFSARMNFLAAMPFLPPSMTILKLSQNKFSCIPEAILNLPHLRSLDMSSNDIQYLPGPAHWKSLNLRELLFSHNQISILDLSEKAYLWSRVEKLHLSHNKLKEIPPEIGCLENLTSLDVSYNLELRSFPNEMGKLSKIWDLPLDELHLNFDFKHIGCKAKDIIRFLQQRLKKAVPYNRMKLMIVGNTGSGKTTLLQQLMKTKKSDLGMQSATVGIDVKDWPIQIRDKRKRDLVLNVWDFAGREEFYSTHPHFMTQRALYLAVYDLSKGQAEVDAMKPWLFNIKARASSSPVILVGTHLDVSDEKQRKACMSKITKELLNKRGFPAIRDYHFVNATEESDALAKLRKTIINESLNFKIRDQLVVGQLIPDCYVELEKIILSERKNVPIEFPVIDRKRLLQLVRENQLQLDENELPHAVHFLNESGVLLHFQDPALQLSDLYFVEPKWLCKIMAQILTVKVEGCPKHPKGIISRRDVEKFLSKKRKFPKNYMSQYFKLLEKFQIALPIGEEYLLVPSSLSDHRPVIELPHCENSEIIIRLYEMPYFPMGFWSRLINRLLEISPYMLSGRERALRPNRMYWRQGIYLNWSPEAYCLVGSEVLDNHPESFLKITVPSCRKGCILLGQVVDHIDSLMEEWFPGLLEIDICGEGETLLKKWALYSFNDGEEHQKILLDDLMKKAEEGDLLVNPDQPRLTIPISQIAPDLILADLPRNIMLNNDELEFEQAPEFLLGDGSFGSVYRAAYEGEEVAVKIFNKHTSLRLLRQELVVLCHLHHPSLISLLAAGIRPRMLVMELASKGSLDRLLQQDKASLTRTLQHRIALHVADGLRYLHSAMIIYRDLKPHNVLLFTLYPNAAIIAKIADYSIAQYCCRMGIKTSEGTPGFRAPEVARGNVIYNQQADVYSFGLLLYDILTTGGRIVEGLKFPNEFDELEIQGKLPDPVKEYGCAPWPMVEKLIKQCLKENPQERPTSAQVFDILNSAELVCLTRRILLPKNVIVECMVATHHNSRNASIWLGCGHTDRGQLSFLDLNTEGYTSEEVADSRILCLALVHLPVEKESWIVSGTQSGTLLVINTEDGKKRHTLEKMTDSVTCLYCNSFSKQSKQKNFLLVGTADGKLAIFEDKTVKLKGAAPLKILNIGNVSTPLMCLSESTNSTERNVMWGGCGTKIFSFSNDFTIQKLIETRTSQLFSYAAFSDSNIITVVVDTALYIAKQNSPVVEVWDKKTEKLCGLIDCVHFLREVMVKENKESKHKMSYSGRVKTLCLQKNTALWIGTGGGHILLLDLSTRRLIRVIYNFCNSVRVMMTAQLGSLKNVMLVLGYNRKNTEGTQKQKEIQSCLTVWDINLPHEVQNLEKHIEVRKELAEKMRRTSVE
For experiment [2], the target named is Leucine-rich repeat serine/threonine-protein kinase 2 (Homo sapiens, UniProt Q5S007). Kind of experiment: Inhibition of GST-tagged LRRK2 (1326 to 2527 residues) (unknown origin) using peptide as substrate incubated for 15 mins in presence of ATP by immunoblotting analysis. A general note: Immunoblotting shows a protein as a band on a membrane.
Chain of Leucine-rich repeat serine/threonine-protein kinase 2 (Homo sapiens, UniProt Q5S007) (Q5S007 whole entry, the tested form may be a part): as the sequence (Q5S007 whole entry G2019S, the tested form may be a part) above, with S2019G counted along it
In experiment [3] the target is Rho-associated protein kinase 2 (Homo sapiens, UniProt O75116). Kind of experiment: Inhibition of His6-tagged ROCK2 (2 to 543 residues) (unknown origin) using peptide as substrate incubated for 15 mins in presence of ATP by immunoblotting analysis.
Chain of Rho-associated protein kinase 2 (O75116 whole entry, the tested form may be a part): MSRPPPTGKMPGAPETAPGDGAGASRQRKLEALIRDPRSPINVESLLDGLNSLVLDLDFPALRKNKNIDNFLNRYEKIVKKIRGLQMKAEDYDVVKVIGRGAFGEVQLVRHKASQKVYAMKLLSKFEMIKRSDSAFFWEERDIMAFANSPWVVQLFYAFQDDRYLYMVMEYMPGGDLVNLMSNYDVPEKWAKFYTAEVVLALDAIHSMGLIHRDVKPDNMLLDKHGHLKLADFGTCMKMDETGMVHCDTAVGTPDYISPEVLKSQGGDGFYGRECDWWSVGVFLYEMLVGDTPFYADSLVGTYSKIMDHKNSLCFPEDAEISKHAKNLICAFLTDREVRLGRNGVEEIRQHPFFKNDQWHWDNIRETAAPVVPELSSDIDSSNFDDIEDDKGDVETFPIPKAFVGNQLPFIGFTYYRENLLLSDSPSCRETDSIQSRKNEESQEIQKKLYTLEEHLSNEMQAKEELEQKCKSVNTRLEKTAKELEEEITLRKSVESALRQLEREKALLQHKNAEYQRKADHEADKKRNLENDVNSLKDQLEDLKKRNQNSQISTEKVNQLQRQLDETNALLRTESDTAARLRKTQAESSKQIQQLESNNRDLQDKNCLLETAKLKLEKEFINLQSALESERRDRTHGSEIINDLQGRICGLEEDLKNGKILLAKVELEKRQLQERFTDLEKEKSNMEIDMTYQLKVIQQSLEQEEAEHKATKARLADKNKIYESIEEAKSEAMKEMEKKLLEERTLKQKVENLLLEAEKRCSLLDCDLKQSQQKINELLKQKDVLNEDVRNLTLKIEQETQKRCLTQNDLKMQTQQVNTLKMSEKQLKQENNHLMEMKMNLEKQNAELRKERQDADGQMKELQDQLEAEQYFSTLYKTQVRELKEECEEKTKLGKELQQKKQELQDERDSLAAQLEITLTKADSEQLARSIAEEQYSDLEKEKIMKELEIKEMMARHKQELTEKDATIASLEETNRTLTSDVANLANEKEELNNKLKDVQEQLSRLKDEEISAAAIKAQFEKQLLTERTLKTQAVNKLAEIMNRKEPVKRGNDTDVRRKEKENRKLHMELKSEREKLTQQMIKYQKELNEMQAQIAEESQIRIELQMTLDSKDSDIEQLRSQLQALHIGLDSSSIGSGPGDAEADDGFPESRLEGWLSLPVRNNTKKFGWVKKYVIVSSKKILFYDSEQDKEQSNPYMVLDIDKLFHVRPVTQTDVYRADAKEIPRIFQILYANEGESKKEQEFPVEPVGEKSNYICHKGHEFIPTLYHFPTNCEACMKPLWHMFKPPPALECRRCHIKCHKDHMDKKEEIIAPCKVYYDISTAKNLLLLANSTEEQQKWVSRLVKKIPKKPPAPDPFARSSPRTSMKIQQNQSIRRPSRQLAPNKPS

As usually defined, the IC50 is the point on the concentration scale where inhibition reaches its midpoint. Regarding `O=S(=O)(NCCNC/C=C/c1ccc(Br)cc1)Nc1cccc2cnccc12`, the figures for the IC50 in experiment [1], in experiment [2] and in experiment [3] were over 10 µM, over 10 µM and 290 nM, respectively.
